This note sets out measurements from US20150344485A1, “BICYCLIC PYRIMIDONE COMPOUNDS AS INHIBITORS OF LP-PLA2” (GLAXOSMITHKLINE INTELLECTUAL PROPERTY DEVELOPMENT LIMITED, priority 2013, published 2015).

Assay [1] deals with T1, recombinant human Lp-PLA2 (Homo sapiens, UniProt Q13093).
T1 sequence (Q13093 22-441): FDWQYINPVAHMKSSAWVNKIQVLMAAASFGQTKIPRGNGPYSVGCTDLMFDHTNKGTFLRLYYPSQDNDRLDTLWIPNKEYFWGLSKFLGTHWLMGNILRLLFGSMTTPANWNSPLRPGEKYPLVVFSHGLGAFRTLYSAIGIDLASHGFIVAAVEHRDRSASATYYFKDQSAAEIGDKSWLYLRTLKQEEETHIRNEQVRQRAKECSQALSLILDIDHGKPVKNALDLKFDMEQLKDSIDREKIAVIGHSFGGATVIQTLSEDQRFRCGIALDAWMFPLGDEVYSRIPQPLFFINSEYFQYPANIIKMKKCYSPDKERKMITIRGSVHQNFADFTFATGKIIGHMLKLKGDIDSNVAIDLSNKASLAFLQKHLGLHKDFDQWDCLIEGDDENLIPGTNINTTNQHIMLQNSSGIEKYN
The assay can be described thus: Recombinant human Lp-PLA2 assay (rhLp-PLA2, PED6 assay). In kind it is biochemical. The procedure, abridged: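 Enzyme (4 nM or 110 pM, as stated for the 5 μL addition) preincubated 30 min with compound in 50 mM HEPES pH 7.4, 150 mM NaCl, 1 mM CHAPS, then PED6 substrate (4 or 5 μM in the addition) added. Fluorescence (ex 480/em 540) read after 20 min, room temperature; pIC50 from curve fitting.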

In assay [2] the target is T2, Lp-PLA2 in human plasma (Homo sapiens, UniProt Q13093).
T2 construct: from tissue; host or cells: pooled human plasma
T2 sequence (Q13093 22-441): T1 sequence (Q13093 22-441)
Kind of assay: Lp-PLA2 human plasma assay (Thio-PAF assay). In kind it is biochemical. The following applies: pooled human plasma; read-out: pIC50 values in the thio-PAF assay (converted). The procedure, abridged:
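Pooled human plasma preincubated 30 min with compound, then 2-thio-PAF substrate added with CPM and NEM in 50 mM HEPES pH 7.4, 150 mM NaCl, 1 mM CHAPS. Quenched with TFA after 2 min, incubated 40 min at room temperature, and read by fluorescence at ex 380/em 485 nm. Values given as pIC50.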

Where [3] appears, read: read-out: pIC50 values in the recombinant human Lp-PLA2 assay (converted).
The mark [4] stands for this setting: read-out: rhLp-PLA2 (PED6 assay) (pIC50) (converted).

Where two headings read alike, the source gives them in different places.

In the case of `C[C@H]1CCn2c(cc(OCc3cc(F)c(Oc4ccc(F)c(Cl)c4)c(F)c3)nc2=O)N1C` [E106, (S)-8-((4-(3-chloro-4-fluorophenoxy)-3,5-difluorobenzyl)oxy)-1,2-dimethyl-3,4-dihydro-1H-pyrimido[1,6-a]pyrimidin-6(2H)-one], the IC50 is at most 1 nM in assay [1] (setting [3]) and at most 100 nM in assay [2].

For `C[C@H]1CCn2c(cc(OCc3ccc(Oc4cnc(C(F)(F)F)nc4)c(F)c3)nc2=O)N1C` [E107, (S)-8-((3-fluoro-4-((2-(trifluoromethyl)pyrimidin-5-yl)oxy)benzyl)oxy)-1,2-dimethyl-3,4-dihydro-1H-pyrimido[1,6-a]pyrimidin-6(2H)-one], the values for the IC50 in assay [1] (setting [3]), in assay [1] (setting [4]) and in assay [2] were at most 1 nM, 0.398 nM and at most 100 nM, respectively.

Turning to `C[C@@H]1CCn2c(cc(OCc3ccc(Oc4ccc(C(F)(F)F)c(F)c4)cc3)nc2=O)N1C` [E108, (R)-8-((4-(3-fluoro-4-(trifluoromethyl)phenoxy)benzyl)oxy)-1,2-dimethyl-3,4-dihydro-1H-pyrimido[1,6-a]pyrimidin-6(2H)-one], the IC50 was at most 1 nM in assay [1] (setting [3]) and at most 100 nM in assay [2].

Regarding `C[C@@H]1CCn2c(cc(OCc3cc(F)c(Oc4ccc(F)c(Cl)c4)c(F)c3)nc2=O)N1C` [E109], the IC50 in assay [1] (setting [3]) is at most 1 nM; in assay [2], at most 10 nM.

Consider `C[C@@H]1CCn2c(cc(OCc3ccc(Oc4cnc(C(F)(F)F)nc4)c(F)c3)nc2=O)N1C` [E110, (R)-8-((3-fluoro-4-((2-(trifluoromethyl)pyrimidin-5-yl)oxy)benzyl)oxy)-1,2-dimethyl-3,4-dihydro-1H-pyrimido[1,6-a]pyrimidin-6(2H)-one], for which the IC50 was at most 1 nM in assay [1] (setting [3]), 0.631 nM in assay [1] (setting [4]) and at most 100 nM in assay [2].

Regarding `CN1c2cc(OCc3ccc(Oc4ccc(F)c(F)c4)c(C#N)c3)nc(=O)n2CCC1(C)C` [E111, 2-(3,4-difluorophenoxy)-5-(((1,2,2-trimethyl-6-oxo-2,3,4,6-tetrahydro-1H-pyrimido[1,6-a]pyrimidin-8-yl)oxy)methyl)benzonitrile], the IC50 in assay [1] (setting [3]) was at most 1 nM; in assay [2], at most 10 nM.

For the molecule `CN1c2cc(OCc3ccc(Oc4ccc(C(F)(F)F)nc4)c(C#N)c3)nc(=O)n2CCC1(C)C` [E112, 2-((6-(trifluoromethyl)pyridin-3-yl)oxy)-5-(((1,2,2-trimethyl-6-oxo-2,3,4,6-tetrahydro-1H-pyrimido[1,6-a]pyrimidin-8-yl)oxy)methyl)benzonitrile], the IC50 in assay [1] (setting [3]) was at most 1 nM; in assay [2], at most 10 nM.

Turning to `C[C@H]1CCn2c(cc(OCc3ccc(Oc4ccc(C(F)(F)F)nc4)c(C#N)c3)nc2=O)N1C` [E113, (S)-5-(((1,2-dimethyl-6-oxo-2,3,4,6-tetrahydro-1H-pyrimido[1,6-a]pyrimidin-8-yl)oxy)methyl)-2-((6-(trifluoromethyl)pyridin-3-yl)oxy)benzonitrile], the values for the IC50 in assay [1] (setting [3]) and in assay [2] were at most 1 nM and at most 100 nM, respectively.

With `C[C@@H]1CCn2c(cc(OCc3ccc(Oc4ccc(F)c(F)c4)c(C#N)c3)nc2=O)N1C` [E114, (R)-2-(3,4-difluorophenoxy)-5-(((1,2-dimethyl-6-oxo-2,3,4,6-tetrahydro-1H-pyrimido[1,6-a]pyrimidin-8-yl)oxy)methyl)benzonitrile], the IC50 in assay [1] (setting [3]) was at most 1 nM; in assay [2], at most 10 nM.

Turning to `C[C@@H]1CCn2c(cc(OCc3ccc(Oc4ccc(C(F)(F)F)nc4)c(C#N)c3)nc2=O)N1C` [E115, (R)-5-(((1,2-dimethyl-6-oxo-2,3,4,6-tetrahydro-1H-pyrimido[1,6-a]pyrimidin-8-yl)oxy)methyl)-2-((6-(trifluoromethyl)pyridin-3-yl)oxy)benzonitrile], the IC50 in assay [1] (setting [3]) is at most 1 nM; in assay [2] it was at most 10 nM.

As to `CN1c2cc(OCc3ccc(Oc4ccc(F)c(C(F)(F)F)c4)c(C#N)c3)nc(=O)n2CCC1(C)C` [E116, 2-(4-fluoro-3-(trifluoromethyl)phenoxy)-5-(((1,2,2-trimethyl-6-oxo-2,3,4,6-tetrahydro-1H-pyrimido[1,6-a]pyrimidin-8-yl)oxy)methyl)benzonitrile], the IC50 in assay [1] (setting [3]) was at most 1 nM; in assay [2], at most 10 nM.

`CN1c2cc(OCc3ccc(Oc4cccc(F)c4)c(C#N)c3)nc(=O)n2CCC1(C)C` [E117, 2-(3-fluorophenoxy)-5-(((1,2,2-trimethyl-6-oxo-2,3,4,6-tetrahydro-1H-pyrimido[1,6-a]pyrimidin-8-yl)oxy)methyl)benzonitrile]: the IC50 is at most 1 nM in assay [1] (setting [3]) and at most 100 nM in assay [2].

Consider `CN1c2cc(OCc3ccc(Oc4ccc(F)cc4)c(C#N)c3)nc(=O)n2CCC1(C)C` [E118, 2-(4-fluorophenoxy)-5-(((1,2,2-trimethyl-6-oxo-2,3,4,6-tetrahydro-1H-pyrimido[1,6-a]pyrimidin-8-yl)oxy)methyl)benzonitrile], for which the IC50 in assay [1] (setting [3]) is at most 1 nM; in assay [2], at most 100 nM.

With `C[C@@H]1CCn2c(cc(OCc3cc(F)c(Oc4ccc(C(F)(F)F)nc4)c(F)c3)nc2=O)N1C` [E119, (R)-8-((3,5-difluoro-4-((6-(trifluoromethyl)pyridin-3-yl)oxy)benzyl)oxy)-1,2-dimethyl-3,4-dihydro-1H-pyrimido[1,6-a]pyrimidin-6(2H)-one], the IC50 in assay [1] (setting [3]) is at most 1 nM; in assay [2], at most 100 nM.

As to `C[C@@H]1CCn2c(cc(OCc3ccc(Oc4cccc(C(F)(F)F)c4)c(F)c3)nc2=O)N1C` [E120, (R)-8-((3-fluoro-4-(3-(trifluoromethyl)phenoxy)benzyl)oxy)-1,2-dimethyl-3,4-dihydro-1H-pyrimido[1,6-a]pyrimidin-6(2H)-one], the values for the IC50 in assay [1] (setting [3]) and in assay [2] were at most 1 nM and at most 100 nM, respectively.

In the case of `C[C@@H]1CCn2c(cc(OCc3ccc(Oc4ccc(C(F)(F)F)cc4)c(F)c3)nc2=O)N1C` [E121, (R)-8-((3-fluoro-4-(4-(trifluoromethyl)phenoxy)benzyl)oxy)-1,2-dimethyl-3,4-dihydro-1H-pyrimido[1,6-a]pyrimidin-6(2H)-one], the IC50 is at most 1 nM in assay [1] (setting [3]) and at most 100 nM in assay [2].

`C[C@@H]1CCn2c(cc(OCc3cc(F)c(Oc4ccc(F)cc4)c(F)c3)nc2=O)N1C` [E122, (R)-8-((3,5-difluoro-4-(4-fluorophenoxy)benzyl)oxy)-1,2-dimethyl-3,4-dihydro-1H-pyrimido[1,6-a]pyrimidin-6(2H)-one]: the IC50 in assay [1] (setting [3]) is at most 1 nM; in assay [2] it was at most 100 nM.

On to `C[C@@H]1CCn2c(cc(OCc3ccc(Oc4cccc(C(F)(F)F)c4)c(C#N)c3)nc2=O)N1C` [E123, (R)-5-(((1,2-dimethyl-6-oxo-2,3,4,6-tetrahydro-1H-pyrimido[1,6-a]pyrimidin-8-yl)oxy)methyl)-2-(3-(trifluoromethyl)phenoxy)benzonitrile], for which the IC50 in assay [1] (setting [3]) was at most 1 nM; in assay [2], at most 10 nM.

`C[C@@H]1CCn2c(cc(OCc3cc(F)c(Oc4ccc(Cl)cc4)c(F)c3)nc2=O)N1C` [E124, (R)-8-((4-(4-chlorophenoxy)-3,5-difluorobenzyl)oxy)-1,2-dim ethyl-3,4-dihydro-1H-pyrimido[1,6-a]pyrimidin-6(2H)-one]: the results for the IC50 in assay [1] (setting [3]) and in assay [2] were at most 1 nM and at most 100 nM, respectively.

Take `C[C@@H]1CCn2c(cc(OCc3ccc(Oc4ccc(F)cc4)c(C#N)c3)nc2=O)N1C` [E125, (R)-5-(((1,2-dimethyl-6-oxo-2,3,4,6-tetrahydro-1H-pyrimido[1,6-a]pyrimidin-8-yl)oxy)methyl)-2-(4-fluorophenoxy)benzonitrile]: the IC50 in assay [1] (setting [3]) is at most 1 nM; in assay [2] it was at most 100 nM.
